Experimental data reported in patent publication US20210238187A1, “AZIRIDINE CONTAINING EPOTHILONE ANALOGS, METHODS OF SYNTHESIS, METHODS OF TREATMENT, AND DRUG CONJUGATES” (WILLIAM MARSH RICE UNIVERSITY, priority 2017, published 2021).
pEC50, pIC50: −log10 of the molar value. Read-outs that look alike come from different tables or passages of the source. Non-standard residues stand in square brackets, D forms with d. Residues, ends and D or L forms follow the SMILES beside them. *: point of attachment. Dolaproine = CO[C@@H]([C@@H]1CCCN1)[C@@H](C)C(=O)O; Dil = CC[C@H](C)[C@H](NC)[C@@H](CC(=O)O)OC; X1 = C[C@@H](N*)[C@@H](O)c1ccccc1; NMeV = CN[C@H](C(=O)O)C(C)C

What was measured:
MES SA = assay: Cytotoxicity assay (CellTiter-Glo), MES SA; assay type: cell-based, human; conditions: read-out: Cancer cell lines IC50, MES SA
MES SA DX = assay: Cytotoxicity assay (CellTiter-Glo), MES SA DX; assay type: cell-based, human; conditions: read-out: Cancer cell lines IC50, MES SA DX
[1] = tested on: MES SA, MES SA DX, and HEK 293T; assay: Cytotoxicity (IC50), summary over MES SA, MES SA DX and HEK 293T; assay type: cell-based, human; conditions: read-out: IC50 against all three cell lines (summary of Table 4)
Tubulin = Tubulin assembly induction; assay type: biochemical
MCF-7 = assay: Cytotoxicity (GI50) assay, MCF-7; assay type: cell-based, human
OVCAR-8 = assay: Cytotoxicity (GI50) assay, OVCAR-8; assay type: cell-based, human
NCI/ADR-RES = assay: Cytotoxicity (GI50) assay, NCI/ADR-RES; assay type: cell-based, human; conditions: Homo sapiens, NCI/ADR-RES, read-out: Cancer cell lines GI50, NCI/ADR-RES
MDA-MB-435 = assay: Cytotoxicity (GI50) assay, MDA-MB-435; assay type: cell-based, human
SNB-75 = assay: Cytotoxicity (GI50) assay, SNB-75; assay type: cell-based, human
HEK 293T = assay: Cytotoxicity assay (CellTiter-Glo), HEK 293T; assay type: cell-based; conditions: Homo sapiens, 72 h, read-out: Cancer cell lines IC50, HEK 293T
human cancer cell lines [2] = assay: cells; conditions: read-out: GI50, range over the cell lines of Table 3
human cancer cell lines [3] = tested on: human cancer cell lines
[4] = human uterine sarcoma cell line, 72 hours, CellTiter-Glo
[5] = Homo sapiens, MCF7, read-out: Cancer cell lines GI50, MCF-7
[6] = Homo sapiens, OVCAR-8, read-out: Cancer cell lines GI50, OVCAR-8
[7] = Homo sapiens, MDA-MB-435, read-out: Cancer cell lines GI50, MDA-MB-435
[8] = Homo sapiens, SNB-75, read-out: Cancer cell lines GI50, SNB-75
[9] = MCF7, human breast cancer cell line, concentration required to decrease cell growth by 50%, read-out: Cancer cell lines GI50, MCF-7
[10] = OVCAR-8, human ovarian cancer cell line, read-out: Cancer cell lines GI50, OVCAR-8
[11] = MES-SA, human uterine sarcoma cell line, 72 hours, CellTiter-Glo
[12] = highly drug resistant human ovarian cancer cell line
[13] = MDA-MB-435, human melanoma cell line, read-out: Cancer cell lines GI50, MDA-MB-435
[14] = SNB-75, human glioblastoma cell line, read-out: Cancer cell lines GI50, SNB-75
[15] = Homo sapiens, MES SA cell line with marked multidrug resistance, 72 hours, CellTiter-Glo

| Compound | pEC50 (Tubulin; […]) | GI50 (MCF-7; [5]) [nM] | GI50 (OVCAR-8; [6]) [nM] | GI50 (NCI/ADR-RES) [nM] | GI50 (MDA-MB-435; [7]) [nM] | GI50 (SNB-75; [8]) [nM] | pIC50 (MES SA; Homo sapiens, MES-SA, 72 h) | pIC50 (MES SA DX; Homo sapiens, MES-SA, 72 h) | pIC50 (HEK 293T) | GI50 (MCF-7; [9]) [nM] | GI50 (OVCAR-8; [10]) [nM] | pIC50 (MES SA; [11]) | also measured |
| --- | --- | --- | --- | --- | --- | --- | --- | --- | --- | --- | --- | --- | --- |
| CC[C@H](C)[C@@H]([C@@H](CC(=O)N1CCC[C@H]1[C@H](OC)[C@@H](C)C(=O)N[C@H](C)[C@@H](O)c1ccccc1)OC)N(C)C(=O)[C@@H](NC(=O)[C@@H](NC)C(C)C)C(C)C [MMAE, monomethyl auristatin E, reference compound] (H-[NMeV]V[Dil][Dolaproine]-X1) |  |  |  |  |  |  |  |  |  |  |  |  | pIC50 (MES SA; [4]): 10.02; pIC50 (MES SA DX): 7.05; pIC50 [1]: ≤ 10.17 |
| C/C(=C\c1ccn(Cn2cccn2)n1)[C@@H]1C[C@@H]2N[C@]2(C)CCC[C@H](C)[C@H](O)[C@@H](C)C(=O)C(C)(C)[C@@H](O)CC(=O)O1 [compound 33, (1S,3S,7S,10R,11S,12S,16R)-7,11-Dihydroxy-8,8,10,12,16-pentamethyl-3-{(1E)-1-[1-(1H-pyrazol-1-ylmethyl)-1H-pyrazol-3-yl]prop-1-en-2-yl}-4-oxa-17-azabicyclo[14.1.0]heptadecane-5,9-dione] | < 4.22 | 140 | 1100 | > 5000 | 160 | 450 | 6.97 | < 5.60 | 6.76 |  |  |  |  |
| CSc1nc(/C=C(\C)[C@@H]2C[C@@H]3N(CCS)[C@]3(C)CCC[C@H](C)[C@H](O)[C@@H](C)C(=O)C(C)(C)[C@@H](O)CC(=O)O2)cs1 (stereo partly drawn) [compound 35, (1S,3S,7S,10R,11S,12S,16R)-7,11-Dihydroxy-8,8,10,12,16-pentamethyl-3-{(1E)-1-[2-(methyl-sulfanyl)-1,3-thiazol-4-yl]prop-1-en-2-yl}-17-(2-sulfanylethyl)-4-oxa-17-azabicyclo[14.1.0]-heptadecane-5,9-dione] | < 4.22 | 39 | 19 | 30 | 5.5 | 32 | 8.83 | 7.77 | 9.47 |  |  |  |  |
| CSc1cc(/C=C(\C)[C@@H]2C[C@@H]3N[C@]3(C)CCC[C@H](C)[C@H](O)[C@@H](C)C(=O)C(C)(C)[C@@H](O)CC(=O)O2)nn1C [compound 40, (1S,3S,7S,10R,11S,12S,16R)-7,11-Dihydroxy-8,8,10,12,16-pentamethyl-3-{(1E)-1-[1-methyl-5-(methylsulfanyl)-1H-pyrazol-3-yl]prop-1-en-2-yl}-4-oxa-17-azabicyclo[14.1.0]heptadecane-5,9-dione] | 4.72 | 3.5 | 100 | 140 | 3.5 | 14 | 9.44 | 7.38 | 9.23 |  |  |  |  |
| CSc1cc(/C=C(\C)[C@@H]2C/C=C(/C)CCC[C@H](C)[C@H](O)[C@@H](C)C(=O)C(C)(C)[C@@H](O)CC(=O)O2)nn1C [compound 73, (4S,7R,8S,9S,13Z,16S)-4,8-Dihydroxy-5,5,7,9,13-pentamethyl-16-{(1E)-1-[1-methyl-5-(methylsulfanyl)-1H-pyrazol-3-yl]prop-1-en-2-yl}oxacyclohexadec-13-ene-2,6-dione] |  |  |  | 52 |  |  |  | 7.41 |  | 5 | 22 | 7.62 | pEC50 (Tubulin): 5.03; pIC50 ([1]; Homo sapiens): 7.41 to 9.77; GI50 (human cancer cell lines [2]): 5 to 52 nM |
| CC(=O)[C@@H]1C[C@@H]2N[C@]2(C)CCC[C@H](C)[C@H](O)[C@@H](C)C(=O)C(C)(C)[C@@H](O)CC(=O)O1 [compound 79, (1S,3S,7S,10R,11S,12S,16R)-3-Acetyl-7,11-dihydroxy-8,8,10,12,16-pentamethyl-4-oxa-17-azabicyclo[14.1.0]heptadecane-5,9-dione] | < 4.22 | > 5000 | > 5000 | > 5000 | > 5000 | > 5000 | < 5.60 | < 5.60 | < 5.60 |  |  |  |  |
| CC(=O)[C@@H]1C[C@@H]2N(CCO)[C@]2(C)CCC[C@H](C)[C@H](O)[C@@H](C)C(=O)C(C)(C)[C@@H](O)CC(=O)O1 (stereo partly drawn) [compound 81, (1S,3S,7S,10R,11S,12S,16R)-3-Acetyl-7,11-dihydroxy-17-(2-hydroxyethyl)-8,8,10,12,16-penta-methyl-4-oxa-17-azabicyclo[14.1.0]heptadecane-5,9-dione] | < 4.22 |  |  |  |  |  |  |  |  | 580 | 550 | 7.44 | GI50 (NCI/ADR-RES; [12]): > 5000 nM; GI50 (MDA-MB-435; [13]): 200 nM; GI50 (SNB-75; [14]): 360 nM; pIC50 (MES SA DX; [15]): < 6.40; cytotoxicity (in words) (human cancer cell lines [3]): significant cytotoxicity |
| CC(=O)O[C@H]1C(=O)[C@@]2(C)[C@H]([C@H](OC(=O)c3ccccc3)[C@]3(O)C[C@H](OC(=O)[C@H](O)[C@@H](NC(=O)c4ccccc4)c4ccccc4)C(C)=C1C3(C)C)[C@]1(OC(C)=O)CO[C@@H]1C[C@@H]2O [paclitaxel, reference compound] | 4.82 |  |  |  |  |  |  |  |  | 7.8 | 26 | 8.61 | GI50 (NCI/ADR-RES; [12]): 4800 nM; GI50 (MDA-MB-435; [13]): 5 nM; GI50 (SNB-75; [14]): 15 nM; pIC50 (MES SA DX; [15]): < 6.40; pIC50 ([1]; Homo sapiens): ≤ 8.75 |
| N-acetyl calicheamicin γ1^1 [NAC, reference compound] |  |  |  |  |  |  |  |  |  |  |  |  | pIC50 (MES SA; [4]): 9.44; pIC50 (MES SA DX): 7.82; pIC50 [1]: ≤ 9.78 |
